Legend:
Format in all cases: in vivo, human
[1] = test system: patients with moderate to severe chronic low back pain; experiment: Opioid Associated Adverse Event Score (OAAES), low back pain study; details: through the treatment period; ITT population
Text: The OAAES is a derived measure using the maximum severity for each of six opioid-associated adverse events (constipation, nausea, vomiting, dizziness, somnolence, and pruritis). For each patient, a maximum severity score (mild=1, moderate=2, and severe=3) was summed for each of the six treatment emergent opioid-associated adverse events that were present. […]

[2] = test system: patients with moderate to severe chronic pain due to osteoarthritis of the hip or knee; experiment: WOMAC Osteoarthritis Index (pain, stiffness, physical function subscales, total score), 3-week osteoarthritis study; details: LOCF; for WOMAC osteoarthritis physical function subscale, actual value, mean / WOMAC osteoarthritis physical function subscale, actual value, median / WOMAC osteoarthritis stiffness subscale, actual value, mean / WOMAC osteoarthritis stiffness subscale, actual value, median / WOMAC osteoarthritis total score, actual value, mean / WOMAC osteoarthritis total score, actual value, median / WOMAC osteoarthritis pain subscale, actual value, mean / WOMAC osteoarthritis pain subscale, actual value, median: intent to treat population
Text: Back pain can be associated with an arthritic condition or inflammation associated with chronic conditions. […] The methods comprise administering to a human subject an amount of an opioid antagonist or the combination of an opioid agonist and an opioid antagonist that is effective to enhance potency of the agonist and/or to alleviate one or more symptoms or signs of an arthritic condition or inflammation associated with a chronic condition, including for example, as measured by a suitable index, scale or measure. The attenuation of one or more symptoms or signs of an arthritic condition or of inflammation associated with a chronic condition may be measured on the WOMAC Osteoarthritis Index or one of its subscales (in other words, the pain, stiffness, or physical function subscales of the WOMAC Osteoarthritis Index). Any suitable version of the WOMAC OA Index may be used, including, for example, Version 3.0 or Version 3.1. Any suitable scale may be used as well. The WOMAC OA Index is available in Likert and Visual Analog scaled formats, either of which may be employed in the present methods. […] The WOMAC values represent a subjective surrogate marker. Alternatively or additionally, the attenuation of one or more symptoms or signs may be measured on another suitable index, scale or measure, such the Australian/Canadian (AUSCAN) Osteoarthritis Hand Index or the Osteoarthritis Global Index (OGI). The AUSCAN 3.1 Index and User Guide are currently available from http://www.womac.org/contact/index.cfm, as are the WOMAC 3.1 Osteoarthritis Index and User Guide. Another suitable measure of attenuation is the Definition of Improvement in Rheumatoid Arthritis described in Felson et al., Arthritis & Rheumatism 38:727-735 (1995) incorporated herein by reference. This measure, which also may be designated as the ACR (American College of Rheumatology) 20 improvement, is a composite defined as both improvement of 20% in the number of tender and number of swollen joints, and a 20% improvement in three of the following five: patient global, physician global, patient pain, patient function assessment, and C-reactive protein (CRP). Another suitable measure is described by Paulus et al., Arthritis & Rheumatism 33:477-484 (1990) which is incorporated herein by reference. Paulus et al. provides a definition of improvement based on a set of measures that discriminate between active second-line drug treatment and placebo. These include a 20% improvement in morning stiffness, erythrocyte sedimentation rate (ESR), joint tenderness score, and joint swelling score and improvement by at least 2 grades on a 5-grade scale (or from grade 2 to grade 1) for patient and physician global assessments of current disease severity. Current disease severity can be measured in a variety of ways, including patient or physician global assessments, patient or physician assessments of joint tenderness, joint swelling stiffness, pain, or physical function, cytokine levels, B-cell or T-cell subtype ratios, erythrocyte sedimentation rate (ESR), or C-reactive protein. Suitable measures of attenuation of one or more symptoms or signs, of inhibiting the progression of an arthritic condition or chronic condition, or of reversing tissue or cellular damage include measuring current disease severity. Other indexes, definitions, measures, or scales may also be used for measuring attenuation of one or more symptoms or signs, inhibition of progression, or reversal of tissue or cellular damage.
A daily diary was to be utilized to record overall pain intensity (PI) and other signs and symptoms.

[3] = test system: patients with moderate to severe chronic pain due to osteoarthritis of the hip or knee; experiment: Vital signs, clinical laboratory tests, EKG (QTc interval), 3-week osteoarthritis study; details: 3-week treatment
Text: The opioid toxicity assessment included: (A) CNS review by assessing for (1) confusion, altered mental state, (2) excessive drowsiness, lethargy, stupor, (3) slurred speech (new onset), (4) respiratory, (5) hypoventilation, shortness of breath, apnea, (6) hypoxia, hypercarbia; and (b) cardiac review by assessing for bradycardia, hypotension, and shock. If patients experienced any of these or other symptoms that, in the principal investigator's opinion, would pose a significant risk if additional opioid doses were administered, doses were not escalated on Week 2, Day 1 or Week 3, Day 1.

[4] = test system: patients with moderate to severe chronic pain due to osteoarthritis of the hip or knee; experiment: Global assessment of study medication, 3-week osteoarthritis study
Method: Global Assessment of Study Medication was also assessed weekly at clinic visits. The patient was prompted with the question, “How would you rate the study medication you received this past week? (Please consider the quality of your pain relief, your side effects, your activity level, your mood and sense of well-being, etc. in this evaluation.)”. Responses were selected from poor, fair, good, very good, and excellent.
The global assessment, quality of analgesia, and pain control, recorded at the end of each week, were summarized in terms of category proportions.
For secondary analysis of data, pain intensity changes, SF-12, and WOMAC were analyzed with the ANOVA methods as described above. Within treatment arms, weeks were compared in pairwise fashion using paired-sample methods. The global assessments, quality of analgesia ratings, and pain control was analyzed at each week, globally and in pairwise fashion, using the Cocharan-Mantel-Haenszel row mean scores (CMH-RMS) test, using equally spaced scores. An “observed data” analysis, without any data imputation, was conducted on pain intensity changes, global assessments, quality of analgesia ratings, pain control, SF-12, and WOMAC using the same analysis methods described previously.

[5] = ITT (N = 102 per active group), LOCF

COc1ccc2c3c1O[C@H]1C(=O)CC[C@@]4(O)[C@@H](C2)N(C)CC[C@]314 [OXY QID, oxycodone]
Opioid Associated Adverse Event Score (OAAES), maximum [1]: 16.0
Opioid Associated Adverse Event Score (OAAES), mean (SD) [1]: 5.6 (3.95)
Opioid Associated Adverse Event Score (OAAES), median [1]: 5.0
Opioid Associated Adverse Event Score (OAAES), minimum [1]: 0.0
WOMAC osteoarthritis pain subscale, actual value at Week 1, mean ([2]; ITT): 263.2
WOMAC osteoarthritis pain subscale, actual value at Week 1, median ([2]; ITT): 279.0
WOMAC osteoarthritis physical function subscale, actual value, mean ([2]; Week 1): 891.8
WOMAC osteoarthritis physical function subscale, actual value, median ([2]; Week 1): 930.5
WOMAC osteoarthritis stiffness subscale, actual value, mean ([2]; Week 1): 120.3
WOMAC osteoarthritis stiffness subscale, actual value, median ([2]; Week 1): 129.5
WOMAC osteoarthritis total score, actual value, mean ([2]; Week 1): 1275.3
WOMAC osteoarthritis total score, actual value, median ([2]; Week 1): 1312.5
WOMAC osteoarthritis pain subscale, actual value, mean ([2]; Week 2): 245.0
WOMAC osteoarthritis pain subscale, actual value, median ([2]; Week 2): 227.5
WOMAC osteoarthritis physical function subscale, actual value, mean ([2]; Week 2): 847.6
WOMAC osteoarthritis physical function subscale, actual value, median ([2]; Week 2): 880.0
WOMAC osteoarthritis stiffness subscale, actual value, mean ([2]; Week 2): 111.4
WOMAC osteoarthritis stiffness subscale, actual value, median ([2]; Week 2): 119.5
WOMAC osteoarthritis total score, actual value, mean ([2]; Week 2): 1204.0
WOMAC osteoarthritis total score, actual value, median ([2]; Week 2): 1222.5
WOMAC osteoarthritis pain subscale, actual value, mean ([2]; Week 3): 238.7
WOMAC osteoarthritis pain subscale, actual value, median ([2]; Week 3): 225.0
WOMAC osteoarthritis physical function subscale, actual value, mean ([2]; Week 3): 820.0
WOMAC osteoarthritis physical function subscale, actual value, median ([2]; Week 3): 867.0
WOMAC osteoarthritis stiffness subscale, actual value, mean ([2]; Week 3): 106.3
WOMAC osteoarthritis stiffness subscale, actual value, median ([2]; Week 3): 109.0
WOMAC osteoarthritis total score, actual value, mean ([2]; Week 3): 1164.9
WOMAC osteoarthritis total score, actual value, median ([2]; Week 3): 1191.0
Effects on vital signs, laboratory safety tests or QTc interval changes [3]: no clinically meaningful effects
Global assessment Week 1: EXCELLENT (4), number (%) of patients [4, 5]: 3 (2.9%)
Global assessment Week 1: FAIR (1), number (%) of patients [4, 5]: 37 (36.3%)
Global assessment Week 1: GOOD (2), number (%) of patients [4, 5]: 30 (29.4%)
Global assessment Week 1: POOR (0), number (%) of patients [4, 5]: 16 (15.7%)
Global assessment Week 1: VERY GOOD (3), number (%) of patients [4, 5]: 12 (11.8%)
Global assessment Week 2: EXCELLENT (4), number (%) of patients [4, 5]: 6 (5.9%)
Global assessment Week 2: FAIR (1), number (%) of patients [4, 5]: 29 (28.4%)
Global assessment Week 2: POOR (0), number (%) of patients [4, 5]: 16 (15.7%)
Global assessment Week 3: EXCELLENT (4), number (%) of patients [4, 5]: 6 (5.9%)
Global assessment Week 3: FAIR (1), number (%) of patients [4, 5]: 18 (17.6%)
Global assessment Week 3: GOOD (2), number (%) of patients [4, 5]: 36 (35.3%)
Global assessment Week 3: POOR (0), number (%) of patients [4, 5]: 24 (23.5%)
Global assessment Week 3: VERY GOOD (3), number (%) of patients [4, 5]: 14 (13.7%)
Patients reporting a global assessment of very good or excellent at Week 3 ([4]; Week 3): 19.6%

Reference: patent US20060009478A1, “Methods for the treatment of back pain” (priority 2003, published 2006)
